Residues, ends and D or L forms follow the SMILES beside them.
System: CD8^+ T cells from HIV^+ subjects
Assay: FACS-based intracellular staining (ICS) for cytolysin (perforin) and cytotoxins (GrzA, GrzB) in CD8+ T cells
Conditions: HIV+ human subjects; for Cyto: CD8+ T-cell cytotoxins (perforin, GrzA & B), frequency of responders: FIV epitope peptide; for Cyto (cytolysin/cytotoxin production), frequency of responders: FIV peptides; for CyCD8: CD8+ T-cell cytolysin/cytotoxins (perforin, GrzA & B), frequency of responders: HIV-1 epitope peptide, threshold ≥0.2%
Procedure: The overlapping peptide pools of FIV and HIV-1 structural and enzyme proteins were used to stimulate the […] (PBMC) and the T cells from HIV^+ subjects as previously described for epitope mapping of HIV-1 and FIV p24 and reverse transcriptase (RT) (Sanou et al., 2013; Roff et al., 2015). The individual peptides in those peptide pools with positive responses to either interferon-γ (IFNγ) production and/or T-cell proliferation were determined with IFNγ ELISpot analysis and CFSE-based CD3^+CD4^+ and CD3^+CD8^+ T-cell proliferation analyses followed by the FACS-based intracellular staining (ICS) for cytolysin (perforin) and cytotoxin (granzyme A [GrzA] and GrzB) (Sanou et al., 2013; Roff et al., 2015). Besides viral p24 and RT proteins, the identical approach was used to identify anti-HIV/FIV T-cell epitopes on viral matrix (MA), nucleocapsid (NC), protease (PR), RNAase, integrase (IN), surface envelope (SU Env), and transmembrane envelope (TM Env) (FIG. 12).
Since our goal is to develop HIV vaccine for human use, the HIV peptides (Table 10) counterpart of the cross-reactive FIV peptides shown in Table 9 were tested with PBMC and T cells from HIV^+ subjects. The immune functions analyzed were human IFNγ production by ELISpot, cytolysin/cytotoxin production by ICS, and CFSE-based proliferation of CD3^+CD4^+ and CD3^+CD8^+ T cells from HIV^+ subjects (Table 10, the first set of results). In addition, the Los Alamos National Laboratories (LANL) database was used to identify the HLA allele(s) of the HIV epitope sequence with CTL activity that can exist within the sequence of the conserved counterpart HIV peptide (Table 9, LANL CTL). The bold HLA class-I supertypes and the bold 2-digit alleles are those on the “Optimal CD8^+ CTL Epitopes” list and those without bold are alleles for potential CTL epitope. […] The HLA class II such as HLA-DRB1 has yet to be fully classified into supertypes, and therefore the 4-digit resolution nomenclatures for the HLA-DRB1 alleles are shown.
The threshold for positive IFNγ and IL2 ELISpot responses is ≥50 spot-forming units (SFU) per 10^6 PBMC. The threshold for CFSE-based CD4^+ and CD8^+ T-cell proliferation is ≥2% CD4^+ T-cell CFSE^low or CD8^+ T-cell CFSE^low. The threshold of FACS-based intracellular cytokine staining (ICS) is ≥0.2%. […] The nine FIV peptides in black were used in the current MAP vaccine trial, whereas the 13 peptides in blue were not used. […] The MAPs and their corresponding peptide(s) were also tested for their ability to enhance or suppress in vitro FIV infection of feline PBMC (E/S of peptides and E/S of MAP).
The counterpart HIV-1 peptides of the FIV peptides were also tested for immunogenicity using PBMC and T cells from HIV^+ human subjects. […] The HRT7-1 and HRT7-2 were also tested with cells from HIV^+ subjects on ART. The threshold for positive IFNγ ELISpot response is ≥75 spot-forming units (SFU) per 10^6 PBMC. The threshold for CFSE-based CD4^+ (CD4^+ T) and CD8^+ (CD8^+ T) T-cell proliferation is ≥2% CD4^+ T-cell CFSE^low or CD8^+ T-cell CFSE^low. The threshold of intracellular cytokine staining (ICS) of FACS-based cytolysin (perforin) and cytotoxins (granzymes A and B) in CD4^+ T cells (CyCD4) and CD8^+ T cells (CyCD8) is ≥0.2%. […] The nine HIV-1 peptides in black are the counterpart FIV peptides used in the current MAP vaccine trial, whereas the 13 peptides in blue were not.

Row | Structure (SMILES) | Cyto: CD8+ T-cell cytotoxins (perforin, GrzA & B), frequency of responders | Cyto (cytolysin/cytotoxin production), frequency of responders | CyCD8: CD8+ T-cell cytolysin/cytotoxins (perforin, GrzA & B), frequency of responders
1 | CC[C@H](C)[C@H](NC(=O)[C@H](CCCNC(=N)N)NC(=O)[C@H](CC(C)C)NC(=O)[C@H](CO)NC(=O)[C@H](CCC(=O)O)NC(=O)[C@H](CCC(N)=O)NC(=O)[C@H](CCC(N)=O)NC(=O)[C@H](CCSC)NC(=O)[C@H](Cc1ccc(O)cc1)NC(=O)[C@H](CC(C)C)NC(=O)[C@H](CCC(=O)O)NC(=O)[C@@H](N)Cc1ccc(O)cc1)C(=O)N[C@@H](CCC(N)=O)C(=O)N[C@@H](CC(=O)O)C(=O)N[C@@H](CCCNC(=N)N)C(=O)O [FIN7-1] (H-YELYMQQESLRIQDR-OH; N-terminus and C-terminus assumed) | ++ (26%-40% (++)) | ++ (25.1%-40% (++)) | –
2 | CC[C@H](C)[C@H](N)C(=O)N[C@@H](CC(=O)O)C(=O)N[C@@H](Cc1ccccc1)C(=O)N[C@@H](CCCNC(=N)N)C(=O)N[C@H](C(=O)N[C@@H](CC(C)C)C(=O)N[C@@H](CC(N)=O)C(=O)N[C@@H](CCCCN)C(=O)N[C@@H](CC(C)C)C(=O)N[C@H](C(=O)N[C@@H](CC(=O)O)C(=O)N[C@@H](CCCCN)C(=O)NCC(=O)N[C@@H](C)C(=O)O)[C@@H](C)O)C(C)C [FRT3-5] (H-IDFRVLNKLTDKGA-OH; N-terminus and C-terminus assumed) | +++ (41%-54% (+++)) | – | –
3 | CC(C)C[C@H](NC(=O)[C@@H](NC(=O)[C@H](Cc1c[nH]c2ccccc12)NC(=O)CNC(=O)[C@H](CCC(N)=O)NC(=O)[C@@H]1CCCN1C(=O)[C@H](CC(C)C)NC(=O)[C@H](CO)NC(=O)[C@H](CS)NC(=O)[C@H](Cc1c[nH]c2ccccc12)NC(=O)[C@@H](NC(=O)[C@H](Cc1ccc(O)cc1)NC(=O)[C@H](CCCNC(=N)N)NC(=O)[C@H](CCCNC(=N)N)NC(=O)CN)C(C)C)C(C)C)C(=O)O [FRT7-1] (H-GRRYVWCSLPQGWVL-OH) | +++ (41%-54% (+++)) | +++ (40.1%-54% (+++)) | –
4 | CC[C@H](C)[C@H](NC(=O)[C@H](CC(C)C)NC(=O)[C@@H]1CCCN1C(=O)[C@H](CO)NC(=O)[C@H](CC(C)C)NC(=O)[C@@H](NC(=O)[C@H](Cc1c[nH]c2ccccc12)NC(=O)CNC(=O)[C@H](CCC(N)=O)NC(=O)[C@@H]1CCCN1C(=O)[C@H](CC(C)C)NC(=O)[C@H](CO)NC(=O)[C@@H](N)CS)C(C)C)C(=O)N[C@@H](Cc1ccc(O)cc1)C(=O)O [FRT7-2] (H-CSLPQGWVLSPLIY-OH) | ++++ (>54% (++++)) | ++++ (>54% (++++)) | –
5 | CSCC[C@H](NC(=O)[C@H](CCCNC(=N)N)NC(=O)[C@H](C)NC(=O)[C@@H]1CCCN1C(=O)[C@H](C)NC(=O)[C@@H](N)Cc1ccccc1)C(=O)N[C@@H](CCC(N)=O)C(=O)N[C@@H](CS)C(=O)N[C@@H](CCCNC(=N)N)C(=O)N[C@@H](C)C(=O)N[C@@H](Cc1c[nH]c2ccccc12)C(=O)N[C@@H](Cc1ccc(O)cc1)C(=O)N[C@@H](CC(C)C)C(=O)N[C@@H](CCC(=O)O)C(=O)N[C@@H](C)C(=O)O [Fp9-3] (H-FAPARMQCRAWYLEA-OH) | +++ (41%-54% (+++)) | +++ (40.1%-54% (+++)) | –
6 | CC(C)C[C@H](NC(=O)[C@H](Cc1ccc(O)cc1)NC(=O)[C@H](CC(C)C)NC(=O)[C@H](CCCCN)NC(=O)[C@@H](NC(=O)[C@H](CCC(=O)O)NC(=O)[C@H](C)NC(=O)[C@@H](NC(=O)[C@H](CC(N)=O)NC(=O)[C@H](CCC(N)=O)NC(=O)[C@H](CCC(=O)O)NC(=O)[C@H](CCC(N)=O)NC(=O)[C@@H](N)CC(=O)O)[C@@H](C)O)C(C)C)C(=O)N[C@@H](CCCCN)C(=O)O [Fp14-1] (H-DQEQNTAEVKLYLK-OH) | +++ (41%-54% (+++)) | +++ (40.1%-54% (+++)) | –
7 | CC[C@H](C)[C@H](NC(=O)[C@H](CO)NC(=O)[C@H](CC(C)C)NC(=O)[C@H](CO)NC(=O)[C@H](CCC(N)=O)NC(=O)[C@H](CCCCN)NC(=O)[C@H](CC(C)C)NC(=O)[C@H](Cc1ccc(O)cc1)NC(=O)[C@H](CC(C)C)NC(=O)[C@H](CCCCN)NC(=O)[C@@H](NC(=O)[C@H](CCC(=O)O)NC(=O)[C@H](C)N)C(C)C)C(=O)N[C@@H](C)C(=O)O [Fp14-3] (H-AEVKLYLKQSLSIA-OH; N-terminus and C-terminus assumed) | ++++ (>54% (++++)) | ++++ (>54% (++++)) | –
8 | CC[C@H](C)[C@H](NC(=O)[C@H](CO)NC(=O)[C@H](CC(C)C)NC(=O)[C@H](CO)NC(=O)[C@H](CCC(N)=O)NC(=O)[C@H](CCCCN)NC(=O)[C@H](CC(C)C)NC(=O)[C@H](Cc1ccc(O)cc1)NC(=O)[C@H](CC(C)C)NC(=O)[C@@H](N)CCCCN)C(=O)N[C@@H](C)C(=O)N[C@@H](CC(N)=O)C(=O)N[C@@H](C)C(=O)O [Fp14-4] (H-KLYLKQSLSIANA-OH; N-terminus and C-terminus assumed) | ++++ (>54% (++++)) | ++++ (>54% (++++)) | –
9 | CC[C@H](C)[C@H](NC(=O)[C@@H](N)CCCCN)C(=O)N[C@@H](CCCNC(=N)N)C(=O)N[C@@H](CC(C)C)C(=O)N[C@@H](CCCNC(=N)N)C(=O)N1CCC[C@H]1C(=O)NCC(=O)NCC(=O)N[C@@H](CCCCN)C(=O)N[C@@H](CCCCN)C(=O)N[C@@H](CCCCN)C(=O)N[C@@H](Cc1ccc(O)cc1)C(=O)O [HMA1] | – | – | − (0%-1.4% (−))
10 | CC(C)C[C@H](NC(=O)[C@@H](NC(=O)[C@H](C)NC(=O)[C@@H](NC(=O)[C@@H](NC(=O)[C@H](CC(N)=O)NC(=O)[C@H](Cc1ccc(O)cc1)NC(=O)[C@H](CC(C)C)NC(=O)[C@H](CO)NC(=O)[C@H](CCCNC(=N)N)NC(=O)[C@H](CC(C)C)NC(=O)[C@H](CCC(=O)O)NC(=O)[C@H](CCC(=O)O)NC(=O)[C@H](CO)NC(=O)CN)[C@@H](C)O)C(C)C)[C@@H](C)O)C(=O)O [HMA2] | – | – | − (0%-1.4% (−))
11 | CC[C@H](C)[C@H](NC(=O)[C@H](CCCCN)NC(=O)[C@@H](NC(=O)[C@@H](NC(=O)[C@@H](NC(=O)[C@H](CC(C)C)NC(=O)[C@@H]1CCCN1C(=O)[C@H](CCCNC(=N)N)NC(=O)[C@H](CCC(N)=O)NC(=O)[C@H](Cc1c[nH]c2ccccc12)NC(=O)[C@H](CC(C)C)NC(=O)[C@@H](N)[C@@H](C)O)C(C)C)[C@@H](C)O)[C@@H](C)CC)C(=O)NCC(=O)NCC(=O)O [HPR1] | – | – | − (0%-1.4% (−))
12 | CC[C@H](C)[C@H](N)C(=O)N1CCC[C@H]1C(=O)N[C@H](C(=O)NCC(=O)N[C@@H](CCC(=O)O)C(=O)N[C@H](C(=O)N[C@@H](Cc1ccc(O)cc1)C(=O)N[C@@H](CCCCN)C(=O)N[C@@H](CCCNC(=N)N)C(=O)N[C@@H](Cc1c[nH]c2ccccc12)C(=O)N[C@H](C(=O)N[C@H](C(=O)N[C@@H](CC(C)C)C(=O)NCC(=O)O)[C@@H](C)CC)[C@@H](C)CC)[C@@H](C)CC)C(C)C [Hp9-3 (10-3)] | – | – | +++ (40.1%-54% (+++))

From US10758609B2, “Cross-reactive T-cell epitopes of HIV, SIV, and FIV for vaccines in humans and cats” (priority 2015, dated 2020)
